Earlier results in patent publication EP0620000A2, “Cosmetic or pharmaceutical use of N-acylalcanolamines” (RHONE-POULENC RORER GMBH, priority 1992, dated 1994).

Conditions: orale Anwendung; tierexperimentelle Prüfungen; DE 27 56 866 A1

**Q.** With N-Oleyl-Phosphatidylethanolaminen as the substance, how does the “antiarteriosklerotische bzw. antilipämische Wirkung” value read?
**A.** deutlich antiarteriosklerotische bzw. antilipämische Wirkung
